According to paper PMC11428215, “Unveiling a New Antimicrobial Peptide with Efficacy against P. aeruginosa and K. pneumoniae from Mangrove-Derived Paenibacillus thiaminolyticus NNS5-6 and Genomic Analysis” (Antibiotics, 2024):
Where two headings read alike, the source gives them in different places. No end group written: not given here.

Assays:
[1] = tested on: P. aeruginosa TISTR 357; format: cell-based, Pseudomonas aeruginosa; settings: TISTR 357, 24 h
Procedure: (§1) The MIC and MBC of the purified AMP were determined using the broth microdilution method following the guidance provided by the Clinical and Laboratory Standards Institute (CLSI). P. aeruginosa TISTR 357 and K. pneumoniae TISTR 1383 were cultured on MH agar and incubated at 37 °C for 18 h. A single colony of the tested bacteria was suspended in 0.85% NaCl until the suspension turbidity reached an OD of 0.1 at 625 nm. The cells were then diluted to 5 × 10^6 CFU/mL using cation-adjusted Mueller Hinton broth (CAMHB). The diluted cell suspension of 10 µL was transferred into each well of a 96-well plate with a final volume of 100 µL per well. The AMP was added to achieve final concentrations ranging from 0.125 to 64 µg/mL. Colistin was used as the positive control, while antibiotic-free samples were used as negative controls. The 96-well plate was incubated at 37 °C for 24 h. Each strain was tested in triplicate. […] Subsequently, 100 µL of each dilution was spread on MH agar and then incubated at 37 °C for 24 h. The MBC was identified as the lowest concentration at which no bacterial colony growth was observed on the agar plate.

[2] = tested on: K. pneumoniae TISTR 1383; format: cell-based, Klebsiella pneumoniae; settings: TISTR 1383, 24 h
Procedure: as §1

[3] = tested on: P. aeruginosa TISTR 357; experiment: Time-kill assay; format: cell-based, Pseudomonas aeruginosa; settings: for reduction rate of viable cells: from initial treatment until eradication, 5 × 10^5 CFU/mL, CAMHB, 37 °C
Procedure: (§2) P. aeruginosa TISTR 357 and K. pneumoniae TISTR 1383 were separately adjusted to an initial treatment cell density of 5 × 10^5 CFU/mL with CAMHB. The experiment preparation followed the microdilution assay procedures. […] The reactions were carried out at 37 °C, followed by spreading the entire volume from each well in each treatment condition on MH agar at specific time intervals (0–24 h). The plates were placed in a 37 °C incubator for 24 h before counting the colonies. The trends in bacterial reduction were graphically depicted using a logarithmic scale of viable cells. The bacterial cell reduction was determined within 24 h. Each experiment was performed in triplicate on the 96-well plates.

[4] = tested on: K. pneumoniae TISTR 1383; experiment: Time-kill assay; format: cell-based, Klebsiella pneumoniae; settings: for reduction rate of viable cells: 5 × 10^5 CFU/mL, CAMHB, 37 °C
Procedure: as §2

[5] = tested on: K. pneumoniae TISTR 1383; experiment: Sytox Green uptake assay (cell membrane permeability); format: cell-based, Klebsiella pneumoniae; settings: 2× MIC; Sytox Green 10 µM, over 24 h; mean ± SD, triplicate
Procedure: The cell suspension was diluted with the diluent until the OD at 625 nm was equal to 0.1 (1.5 × 10^8 CFU/mL). An aliquot of the diluted cells (100 μL) was introduced into each well and incubated with 10 μM of Sytox Green (Thermo Fisher Scientific Inc., Waltham, MA, USA) in the dark for 15 min. […] After the introduction of the AMP, the cell membrane permeability of treated bacteria was evaluated by monitoring the fluorescence intensity resulting from the penetration of Sytox Green across the compromised cell membrane and subsequently binding to nucleic acid. […] Significant differences in fluorescence intensity of overall time points were analyzed by one-way ANOVA (p-value < 0.05) and post hoc Tukey’s test for multiple comparisons between treated and non-treated conditions [52].

[6] = tested on: P. aeruginosa TISTR 357; experiment: Stability against temperatures, residual antibacterial activity; format: physicochemical, Pseudomonas aeruginosa; settings: AMP 16 µg/mL, agar well diffusion read-out, % of non-treated AMP, mean ± SD, n = 3
Procedure: (§3) The AMP was dissolved in sterile purified water and adjusted a final concentration to 16 µg/mL. The sensitivity of the AMP to temperatures of 37, 40, 50, 60, 80, and 100 °C, as well as autoclaving at 121 °C for 15 and 30 min was evaluated. The sensitivity of the AMP to proteolytic enzymes with different digesting characteristics was studied by incubating with a concentration of 1 mg/mL of proteinase K, trypsin, and α-chymotrypsin (Sigma-Aldrich, Warren, MI, USA). The compatibility of the AMP with surfactants was evaluated by exposing the AMP to 1% SDS or 1% Triton X-100 (AppliChem GmbH, Darmstadt, Germany). The degradation of the AMP under various pH conditions, including physiological and extended alkaline conditions, was evaluated by adjusting the pH of the solution to 1.2, 4.5, 6.8, 7.4, 8.0, 10.0, 12.0, and 14.0. After incubation, the pH of the AMP solution was neutralized to the original pH before being assessed for antibacterial activity. The antibacterial assay against P. aeruginosa TISTR 357 was conducted using the agar well diffusion assay in triplicate. The stability profiles are presented as the percentage of the residual activity compared with the non-treatment conditions (mean ± SD), and statistical significance was determined by the Student’s t-test at a p-value < 0.05.

[7] = tested on: P. aeruginosa TISTR 357; experiment: Compatibility with surfactants, residual antibacterial activity; format: physicochemical, Pseudomonas aeruginosa; settings: AMP 16 µg/mL, agar well diffusion read-out, % of non-treated AMP, mean ± SD, n = 3
Procedure: as §3

[8] = tested on: P. aeruginosa TISTR 357; experiment: Stability against pH, residual antibacterial activity; format: physicochemical, Pseudomonas aeruginosa; settings: neutralized before assay, AMP 16 µg/mL, agar well diffusion read-out, % of non-treated AMP, mean ± SD, n = 3
Procedure: as §3

[9] = biological target: Proteinase K (Parengyodontium album, UniProt P06873); settings: Proteinase K 1 mg/mL, AMP 16 µg/mL, agar well diffusion read-out, % of non-treated AMP, mean ± SD, n = 3
Sequence of Proteinase K (P06873 106-384): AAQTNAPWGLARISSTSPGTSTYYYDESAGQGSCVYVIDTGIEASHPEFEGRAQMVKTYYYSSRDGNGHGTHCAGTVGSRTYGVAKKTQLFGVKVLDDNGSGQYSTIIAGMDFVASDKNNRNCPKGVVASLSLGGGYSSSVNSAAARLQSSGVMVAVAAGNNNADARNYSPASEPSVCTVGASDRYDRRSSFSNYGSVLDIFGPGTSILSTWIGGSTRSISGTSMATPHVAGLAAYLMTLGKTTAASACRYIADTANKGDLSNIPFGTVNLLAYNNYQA
Procedure: as §3

[10] = biological target: α-chymotrypsin (Bos taurus, UniProt P00766); settings: α-chymotrypsin 1 mg/mL, AMP 16 µg/mL, agar well diffusion read-out, % of non-treated AMP, mean ± SD, n = 3
Procedure: as §3

## VKGDGGPGTVYTM [NNS5-6 AMP]
[1]
  MBC: 4 µg/mL
  MIC: 4 µg/mL
[2]
  MBC: 8 µg/mL
  MIC: 4 µg/mL
[3]; 1× MIC
  reduction rate of viable cells: 0.6297 log CFU/h
[3]; 1× and 2× MIC
  treatment time to eradication of viable cells: 8 h
[3]; 2× MIC
  reduction rate of viable cells: 0.6421 log CFU/h
[4]; 1× MIC, until 24 h of treatment, growth only suppressed
  reduction of viable cells: up to 2 log (CFU/mL)
[4]; 1× MIC
  reduction rate of viable cells: 0.0579 log CFU/h
[4]; 2× MIC
  treatment time to eradication of viable cells: ≤ 8 h
  reduction rate of viable cells: 0.5715 log CFU/h
[5]
  fold increase in fluorescence intensity compared with non-treatment: 3.21 ± 0.29 fold
[6]; 37 °C, 1 h
  % Residual Activity of NNS5-6 AMP against P. aeruginosa TISTR 357: 99.39 ± 1.98%
[6]; 37 °C, 6 h
  % Residual Activity of NNS5-6 AMP against P. aeruginosa TISTR 357: 99.39 ± 0.61%
[6]; 37 °C, 12 h
  % Residual Activity of NNS5-6 AMP against P. aeruginosa TISTR 357: 99.69 ± 0.95%
[6]; 40 °C, 1 h
  % Residual Activity of NNS5-6 AMP against P. aeruginosa TISTR 357: 99.80 ± 0.94%
[6]; 40 °C, 6 h
  % Residual Activity of NNS5-6 AMP against P. aeruginosa TISTR 357: 99.19 ± 0.93%
[6]; 40 °C, 12 h
  % Residual Activity of NNS5-6 AMP against P. aeruginosa TISTR 357: 99.07 ± 0.72%
[6]; 50 °C, 1 h
  % Residual Activity of NNS5-6 AMP against P. aeruginosa TISTR 357: 65.16 ± 3.07 %
[6]; 50 °C, 6 h
  % Residual Activity of NNS5-6 AMP against P. aeruginosa TISTR 357: 0.00 ± 0.00 %
[6]; 50 °C, 12 h
  % Residual Activity of NNS5-6 AMP against P. aeruginosa TISTR 357: 0.00 ± 0.00 %
[6]; 60 °C, 1 h
  % Residual Activity of NNS5-6 AMP against P. aeruginosa TISTR 357: 0.00 ± 0.00 %
[6]; 60 °C, 6 h
  % Residual Activity of NNS5-6 AMP against P. aeruginosa TISTR 357: 0.00 ± 0.00 %
[6]; 60 °C, 12 h
  % Residual Activity of NNS5-6 AMP against P. aeruginosa TISTR 357: 0.00 ± 0.00 %
[6]; 80 °C, 1 h
  % Residual Activity of NNS5-6 AMP against P. aeruginosa TISTR 357: 0.00 ± 0.00 %
[6]; 80 °C, 6 h
  % Residual Activity of NNS5-6 AMP against P. aeruginosa TISTR 357: 0.00 ± 0.00 %
[6]; 80 °C, 12 h
  % Residual Activity of NNS5-6 AMP against P. aeruginosa TISTR 357: 0.00 ± 0.00 %
[6]; 100 °C, 1 h
  % Residual Activity of NNS5-6 AMP against P. aeruginosa TISTR 357: 0.00 ± 0.00 %
[6]; 100 °C, 6 h
  % Residual Activity of NNS5-6 AMP against P. aeruginosa TISTR 357: 0.00 ± 0.00 %
[6]; 100 °C, 12 h
  % Residual Activity of NNS5-6 AMP against P. aeruginosa TISTR 357: 0.00 ± 0.00 %
[6]; autoclave 121 °C, 15 psi, 15 min (same value in 1 h, 6 h and 12 h)
  % Residual Activity of NNS5-6 AMP against P. aeruginosa TISTR 357: 0.00 ± 0.00 %
[6]; autoclave 121 °C, 15 psi, 30 min (same value in 1 h, 6 h and 12 h)
  % Residual Activity of NNS5-6 AMP against P. aeruginosa TISTR 357: 0.00 ± 0.00 %
[7]; with 1% SDS, 1 h
  % Residual Activity of NNS5-6 AMP against P. aeruginosa TISTR 357: 116.77 ± 1.80 %
[7]; with 1% SDS, 6 h
  % Residual Activity of NNS5-6 AMP against P. aeruginosa TISTR 357: 122.52 ± 1.86 %
[7]; with 1% SDS, 12 h
  % Residual Activity of NNS5-6 AMP against P. aeruginosa TISTR 357: 119.19 ± 1.53 %
[7]; with 1% Triton X-100, 1 h
  % Residual Activity of NNS5-6 AMP against P. aeruginosa TISTR 357: 116.17 ± 0.60 %
[7]; with 1% Triton X-100, 6 h
  % Residual Activity of NNS5-6 AMP against P. aeruginosa TISTR 357: 120.28 ± 1.53 %
[7]; with 1% Triton X-100, 12 h
  % Residual Activity of NNS5-6 AMP against P. aeruginosa TISTR 357: 120.81 ± 1.53 %
[8]; pH 1.2, 1 h
  % Residual Activity of NNS5-6 AMP against P. aeruginosa TISTR 357: 89.62 ± 1.85 %
[8]; pH 1.2, 6 h
  % Residual Activity of NNS5-6 AMP against P. aeruginosa TISTR 357: 83.83 ± 1.72 %
[8]; pH 1.2, 12 h
  % Residual Activity of NNS5-6 AMP against P. aeruginosa TISTR 357: 81.14 ± 1.71 %
[8]; pH 4.5, 1 h
  % Residual Activity of NNS5-6 AMP against P. aeruginosa TISTR 357: 97.31 ± 0.33%
[8]; pH 4.5, 6 h
  % Residual Activity of NNS5-6 AMP against P. aeruginosa TISTR 357: 95.69 ± 1.75%
[8]; pH 4.5, 12 h
  % Residual Activity of NNS5-6 AMP against P. aeruginosa TISTR 357: 95.62 ± 1.19%
[8]; pH 6.8, 1 h
  % Residual Activity of NNS5-6 AMP against P. aeruginosa TISTR 357: 97.31 ± 3.33%
[8]; pH 6.8, 6 h
  % Residual Activity of NNS5-6 AMP against P. aeruginosa TISTR 357: 96.46 ± 0.57%
[8]; pH 6.8, 12 h
  % Residual Activity of NNS5-6 AMP against P. aeruginosa TISTR 357: 96.00 ± 0.57%
[8]; pH 7.4, 1 h
  % Residual Activity of NNS5-6 AMP against P. aeruginosa TISTR 357: 98.65 ± 0.58%
[8]; pH 7.4, 6 h
  % Residual Activity of NNS5-6 AMP against P. aeruginosa TISTR 357: 98.18 ± 1.15%
[8]; pH 7.4, 12 h
  % Residual Activity of NNS5-6 AMP against P. aeruginosa TISTR 357: 98.48 ± 0.66%
[8]; pH 8.0, 1 h
  % Residual Activity of NNS5-6 AMP against P. aeruginosa TISTR 357: 99.23 ± 1.15%
[8]; pH 8.0, 6 h
  % Residual Activity of NNS5-6 AMP against P. aeruginosa TISTR 357: 97.22 ± 0.98%
[8]; pH 8.0, 12 h
  % Residual Activity of NNS5-6 AMP against P. aeruginosa TISTR 357: 98.48 ± 0.87%
[8]; pH 10.0, 1 h
  % Residual Activity of NNS5-6 AMP against P. aeruginosa TISTR 357: 98.85 ± 1.20%
[8]; pH 10.0, 6 h
  % Residual Activity of NNS5-6 AMP against P. aeruginosa TISTR 357: 97.42 ± 0.82%
[8]; pH 10.0, 12 h
  % Residual Activity of NNS5-6 AMP against P. aeruginosa TISTR 357: 98.10 ± 1.44%
[8]; pH 12.0, 1 h
  % Residual Activity of NNS5-6 AMP against P. aeruginosa TISTR 357: 94.31 ± 0.68 %
[8]; pH 12.0, 6 h
  % Residual Activity of NNS5-6 AMP against P. aeruginosa TISTR 357: 93.40 ± 0.78 %
[8]; pH 12.0, 12 h
  % Residual Activity of NNS5-6 AMP against P. aeruginosa TISTR 357: 90.10 ± 2.38 %
[8]; pH 14.0, 1 h
  % Residual Activity of NNS5-6 AMP against P. aeruginosa TISTR 357: 90.77 ± 0.88 %
[8]; pH 14.0, 6 h
  % Residual Activity of NNS5-6 AMP against P. aeruginosa TISTR 357: 84.40 ± 1.15 %
[8]; pH 14.0, 12 h
  % Residual Activity of NNS5-6 AMP against P. aeruginosa TISTR 357: 79.05 ± 1.75 %
[9]; 1 h
  % Residual Activity of NNS5-6 AMP against P. aeruginosa TISTR 357: 96.08 ± 3.41 %
[9]; 6 h
  % Residual Activity of NNS5-6 AMP against P. aeruginosa TISTR 357: 86.58 ± 1.22 %
[9]; 12 h
  % Residual Activity of NNS5-6 AMP against P. aeruginosa TISTR 357: 83.62 ± 1.34 %
[10]; 1 h
  % Residual Activity of NNS5-6 AMP against P. aeruginosa TISTR 357: 99.38 ± 0.95%
[10]; 6 h
  % Residual Activity of NNS5-6 AMP against P. aeruginosa TISTR 357: 99.42 ± 1.22%
[10]; 12 h
  % Residual Activity of NNS5-6 AMP against P. aeruginosa TISTR 357: 98.46 ± 0.88%
